Measurements reported in ChEMBL document CHEMBL6092220 (J Med Chem, 2024).

Assays:
[1] = tested on: SU-DHL-1; assay: Antiproliferative activity against human SU-DHL-1 cells assessed as cell growth inhibition incubated for 4 days by celltiter-glo assay; assay type: functional, cell-based; conditions: SU-DHL-1, 96 h
[2] = Clearance in Sprague-Dawley rat assessed as hepatic blood flow at 5 mg/kg, iv; assay type: ADME, organism-based; conditions: in vivo
[3] = biological target: T1, Protein cereblon/Signal transducer and activator of transcription 3 (Mus musculus) (UniProt P42227+Q8C7D2); assay: In-vivo PROTAC activity at STAT3/CRBN in female CB17 SCID mouse assessed as reduction STAT3 level spleen at 10 mg/kg, iv measured at 72 hrs by Western blot analysis; assay type: functional, organism-based; set-up: scale not given: the % may be the effect or the level left
[4] = Plasma protein binding in rat assessed as unbound fraction at 10 uM; assay type: ADME, cell-free
[5] = Plasma protein binding in human at 10 uM; assay type: ADME, cell-free
[6] = Cmax in ICR mouse at 5 mg/kg, iv; assay type: ADME, organism-based; conditions: in vivo
[7] = biological target: T2, Protein cereblon/Signal transducer and activator of transcription 3 (Homo sapiens, UniProt P40763+Q96SW2); assay: PROTAC activity at his-SUMO-tagged STAT3 (127 to 688 residues)/CRBN in human HeLa cells assessed as induction of STAT3 degradation incubated for 24 hrs by TECAN SPARK microplate reader analysis; assay type: cell-based
[8] = AUC (0 to t) in Sprague-Dawley rat at 5 mg/kg, iv; assay type: ADME, organism-based; conditions: in vivo
[9] = Cmax in Sprague-Dawley rat at 5 mg/kg, iv; assay type: ADME, organism-based; conditions: in vivo
[10] = Plasma protein binding in mouse at 10 uM; assay type: ADME, cell-free
[11] = Antiproliferative activity against human SUPM2 cells assessed as cell growth inhibition incubated for 4 days by celltiter-glo assay; assay type: functional, cell-based; conditions: SUP-M2, 96 h
[12] = Apparent volume of distribution in ICR mouse at 5 mg/kg, iv; assay type: ADME, organism-based; conditions: in vivo, read-out: Vz
[13] = AUC (0 to t) in Beagle dog at 1 mg/kg, iv; assay type: ADME, organism-based, Canis lupus familiaris; conditions: in vivo
[14] = biological target: T1, Protein cereblon/Signal transducer and activator of transcription 3 (Mus musculus); assay: In-vivo PROTAC activity at STAT3/CRBN in female CB17 SCID mouse assessed as reduction STAT3 level liver at 10 mg/kg, iv measured at 48 hrs by Western blot analysis; assay type: functional, organism-based; set-up: scale not given: the % may be the effect or the level left
[15] = biological target: T2, Protein cereblon/Signal transducer and activator of transcription 3; assay: PROTAC activity at his-SUMO-tagged STAT3 (127 to 688 residues)/CRBN in human HeLa cells assessed as induction of STAT3 degradation incubated for 24 hrs by TECAN SPARK microplate reader analysis relative to control; assay type: cell-based
[16] = Clearance in ICR mouse at 5 mg/kg, iv; assay type: ADME, organism-based; conditions: in vivo
[17] = Clearance in Beagle dog assessed as hepatic blood flow at 1 mg/kg, iv; assay type: ADME, organism-based, Canis lupus familiaris; conditions: in vivo
[18] = Apparent volume of distribution in Sprague-Dawley rat at 5 mg/kg, iv; assay type: ADME, organism-based; conditions: in vivo, read-out: Vz
[19] = Plasma protein binding in dog assessed as unbound fraction at 10 uM; assay type: ADME, cell-free, Canis lupus familiaris
[20] = biological target: T1, Protein cereblon/Signal transducer and activator of transcription 3 (Mus musculus); assay: In-vivo PROTAC activity at STAT3/CRBN in female CB17 SCID mouse assessed as reduction STAT3 level liver at 10 mg/kg, iv measured at 24 hrs by Western blot analysis; assay type: functional, organism-based; set-up: scale not given: the % may be the effect or the level left
[21] = Plasma protein binding in human assessed as unbound fraction at 10 uM; assay type: ADME, cell-free
[22] = Clearance in Sprague-Dawley rat at 5 mg/kg, iv; assay type: ADME, organism-based; conditions: in vivo
[23] = biological target: T1, Protein cereblon/Signal transducer and activator of transcription 3 (Mus musculus); assay: In-vivo PROTAC activity at STAT3/CRBN in female CB17 SCID mouse assessed as reduction STAT3 level liver at 10 mg/kg, iv measured at 72 hrs by Western blot analysis; assay type: functional, organism-based; set-up: scale not given: the % may be the effect or the level left
[24] = Antiproliferative activity against human MOLM16 cells assessed as cell growth inhibition incubated for 4 days by celltiter-glo assay; assay type: functional, cell-based, MOLM-16; conditions: MOLM16, 96 h
[25] = Apparent volume of distribution in Beagle dog at 1 mg/kg, iv; assay type: ADME, organism-based, Canis lupus familiaris; conditions: in vivo, read-out: Vz
[26] = Plasma protein binding in dog at 10 uM; assay type: ADME, cell-free, Canis lupus familiaris
[27] = biological target: T1, Protein cereblon/Signal transducer and activator of transcription 3 (Mus musculus); assay: In-vivo PROTAC activity at STAT3/CRBN in female CB17 SCID mouse assessed as reduction STAT3 level spleen at 10 mg/kg, iv measured at 24 hrs by Western blot analysis; assay type: functional, organism-based; set-up: scale not given: the % may be the effect or the level left
[28] = Half life in Sprague-Dawley rat at 5 mg/kg, iv; assay type: ADME, organism-based; conditions: in vivo
[29] = biological target: T1, Protein cereblon/Signal transducer and activator of transcription 3 (Mus musculus); assay: In-vivo PROTAC activity at STAT3/CRBN in female CB17 SCID mouse assessed as reduction STAT3 level spleen at 10 mg/kg, iv measured at 48 hrs by Western blot analysis; assay type: functional, organism-based; set-up: scale not given: the % may be the effect or the level left
[30] = Cmax in Beagle dog at 1 mg/kg, iv; assay type: ADME, organism-based, Canis lupus familiaris; conditions: in vivo
[31] = Half life in ICR mouse at 5 mg/kg, iv; assay type: ADME, organism-based; conditions: in vivo
[32] = Clearance in ICR mouse assessed as hepatic blood flow at 5 mg/kg, iv; assay type: ADME, organism-based; conditions: in vivo
[33] = AUC (0 to t) in ICR mouse at 5 mg/kg, iv; assay type: ADME, organism-based; conditions: in vivo
[34] = Half life in Beagle dog at 1 mg/kg, iv; assay type: ADME, organism-based, Canis lupus familiaris; conditions: in vivo
[35] = Clearance in Beagle dog at 1 mg/kg, iv; assay type: ADME, organism-based, Canis lupus familiaris; conditions: in vivo
[36] = Plasma protein binding in rat at 10 uM; assay type: ADME, cell-free
[37] = biological target: Signal transducer and activator of transcription 6 (Homo sapiens, UniProt P42226); assay: Binding affinity to STAT6 (unknown origin) by FP assay
[38] = biological target: Protein cereblon/Signal transducer and activator of transcription 4 (Homo sapiens, UniProt Q96SW2+Q14765); assay: PROTAC activity at STAT4/CRBN in human SU-DHL-1 cells assessed as reduction in STAT4 level incubated for 20 hrs by Western blot analysis; assay type: cell-based; conditions: dose <= 40.0 µM
[39] = Binding affinity to STAT5 (unknown origin) by FP assay; set-up: species or system Homo sapiens
[40] = biological target: T3, Signal transducer and activator of transcription 3 (Homo sapiens, UniProt P40763); assay: Binding affinity to STAT3 (unknown origin) assessed as maximum inhibition by FP assay relative to control
[41] = biological target: Signal transducer and activator of transcription 6 (Homo sapiens) (UniProt P42226); assay: Binding affinity to STAT6 (unknown origin) assessed as maximum inhibition by FP assay relative to control
[42] = biological target: Signal transducer and activator of transcription 1-alpha/beta (Homo sapiens, UniProt P42224); assay: Binding affinity to STAT1 (unknown origin) by FP assay
[43] = biological target: Signal transducer and activator of transcription 4 (Homo sapiens) (UniProt Q14765); assay: Binding affinity to STAT4 (unknown origin) assessed as maximum inhibition by FP assay relative to control
[44] = biological target: Signal transducer and activator of transcription 4 (Homo sapiens, UniProt Q14765); assay: Binding affinity to STAT4 (unknown origin) by FP assay
[45] = biological target: Signal transducer and activator of transcription 1-alpha/beta (Homo sapiens) (UniProt P42224); assay: Binding affinity to STAT1 (unknown origin) assessed as maximum inhibition by FP assay relative to control
[46] = biological target: T3, Signal transducer and activator of transcription 3; assay: Binding affinity to STAT3 (unknown origin) assessed as inhibition constant
[47] = Chemical stability of the compound in PBS buffer at pH 4; assay type: physicochemical
[48] = Chemical stability of the compound in PBS buffer at pH 8; assay type: physicochemical
[49] = Chemical stability of the compound in PBS buffer at pH 7.4; assay type: physicochemical
[50] = Chemical stability of the compound in PBS buffer assessed as half life at pH 8; assay type: physicochemical
[51] = Chemical stability of the compound in PBS buffer assessed as half life at pH 7.4; assay type: physicochemical
[52] = Chemical stability of the compound in PBS buffer assessed as half life at pH 4; assay type: physicochemical

## CC(=O)N1CC[C@H]2CC[C@@H](C(=O)N[C@@H](CCC(N)=O)C(=O)N[C@@H](Cc3ccc(F)c(F)c3)C(=O)N3CCC(CCC#Cc4cccc5c4CN(C4CCC(=O)NC4=O)C5=O)CC3)N2C(=O)[C@@H](NC(=O)c2cc3cc(C(F)(F)P(=O)(O)O)ccc3s2)C1 (some centres not stated)
[1]
  IC50: 3580 nM
[2]
  QH: 7.3%
[3]
  Activity: > 90%
[4]
  Fu: 3.8%
[5]
  PPB: 99.4%
[6]
  Cmax: 121000 ng/mL
[7]
  DC50: 1600 nM
[8]
  AUC(0-t): 21100 ng·h/mL
[9]
  Cmax: 15900 ng/mL
[10]
  PPB: 99.1%
[11]
  IC50: 1460 nM
[12]
  Vd: 0.11 L/kg
[13]
  AUC(0-t): 15000 ng·h/mL
[14]
  Activity: > 90%
[15]
  Emax: 68%
[16]
  clearance: 0.073 mL/min/kg
[17]
  QH: 3.1%
[18]
  Vd: 0.44 L/kg
[19]
  Fu: 3.3%
[20]
  Activity: > 90%
[21]
  Fu: 0.6%
[22]
  clearance: 4 mL/min/kg
[23]
  Activity: > 90%
[24]
  IC50: 75 nM
[25]
  Vd: 0.24 L/kg
[26]
  PPB: 96.7%
[27]
  Activity: > 90%
[28]
  half-life: 1.3 h
[29]
  Activity: > 90%
[30]
  Cmax: 8030 ng/mL
[31]
  half-life: 16.9 h
[32]
  QH: 0.1%
[33]
  AUC(0-t): 739000 ng·h/mL
[34]
  half-life: 2.9 h
[35]
  clearance: 1 mL/min/kg
[36]
  PPB: 96.2%

## NC(=O)CC[C@H](NC(=O)[C@@H]1CC[C@@H]2CCN(C(=O)CCCCCC#Cc3cccc4c3CN(C3CCC(=O)NC3=O)C4=O)C[C@H](NC(=O)c3cc4cc(C(F)(F)P(=O)(O)O)ccc4[nH]3)C(=O)N21)C(=O)NC(c1ccccc1)c1ccccc1 (some centres not stated)
[1]
  IC50: 330 nM
[37]
  IC50: > 10000 nM
[7]
  DC50: 400 nM
[11]
  IC50: 490 nM
[15]
  Emax: 86%
[38]
  Activity: Dose-dependent-effect
[39]
  IC50: > 10 nM
[40]
  Imax: 100%
[41]
  Imax: 0%
[42]
  IC50: 1300 nM
[43]
  Imax: 93%
[24]
  IC50: 30 nM
[44]
  IC50: 1100 nM
[45]
  Imax: 92%

## CN1CC[C@H]2CC[C@@H](C(=O)N[C@@H](CCC(N)=O)C(=O)NC(c3ccccc3)c3ccccc3)N2C(=O)[C@@H](NC(=O)c2cc3cc(C(F)(F)P(=O)(O)O)ccc3s2)C1
[46]
  Ki: 6 nM
[47]
  Stability: Stable
[48]
  Stability: Stable
[49]
  Stability: Stable

## CN1CC[C@H]2CC[C@@H](C(=O)N[C@@H](CCC(N)=O)C(=O)NC(c3ccccc3)c3ccccc3)N2C(=O)[C@@H](NC(=O)c2cc3cc(C(F)(F)P(=O)(O)O)ccc3[nH]2)C1
[50]
  t1/2: 2 h
[51]
  t1/2: 2 h
[52]
  t1/2: 4 h
